Assay results: patent US20070248955A1, “Use Of Genetic Polymorphisms To Predict Drug-Induced Hepatotoxicity” (NOVARTIS AG, priority 2003, published 2007)

Assay: Hepatotoxicity (fold increases of AST or ALT over the upper limit of normal) in the phase II clinical trial
Assay type: in vivo, human
Procedure: Relevant genetic polymorphisms were identified in a multicenter, randomized, double-masked placebo-controlled dose finding phase II trial of N-benzoyl-staurosporine, which was conducted in subjects with diabetic macular edema. The safety of N-benzoyl-staurosporine was evaluated in the subjects and additional pharmacokinetic information on was collected. […] Subjects were flagged as having experienced hepatotoxicity if either aspartate aminotransferase (AST) or alanine aminotransferase (ALT) had fold elevations over the upper limit of normal on visit 3, 4 or 5.
The diagnosis of hepatotoxicity can be accomplished using assays of serum enzyme levels. Serum enzyme assays indicative of liver dysfunction are well-known to those of skill in the medical arts and routine in hospital laboratories. For a definition of hepatotoxicity based upon serum levels of aspartate transaminase (AST) and used in the EXAMPLE: The definition of hepatotoxicity used in this analysis was based on fold increases in serum aspartate transaminase or alanine aminotransferase over the upper limit of normal (ULN) on visits 3, 4 or 5. The upper limit of normal for serum aspartate transaminase is 42 U/L for ages 3-64 and 55 U/L for ages 65 and up; for serum alanine aminotransferase the upper limit of normal is 48 U/L (Smithkline Beecham Clinical Laboratories Reference Alert Ranges). While an elevation of either enzyme at visit 3, 4 or 5 constituted hepatotoxicity, transaminase elevations were disregarded during subsequent visits when the drug was not being administered. Furthermore, subjects who had elevated liver function tests at baseline (visit 2) were not flagged as having experienced hepatotoxicity, regardless of the elevation in their enzyme levels following administration of the drug. Nine subjects were flagged as having experienced hepatotoxicity. Of these, six consented to clinical pharmacogenetic analysis.
Hepatotoxicity and N-benzoyl-staurosporine metabolism. The relationship between the occurrence of hepatotoxicity in the clinical trial and the dose of N-benzoyl-staurosporine administered was examined. The percentage of subjects per dose group that experienced hepatotoxicity are as follows: 3% for 50 mg/day, 8% for 100 mg/day and 14% of those that took 150 mg/day. While most of the subjects that experienced liver toxicity took the highest dose of N-benzoyl-staurosporine, the association between of N-benzoyl-staurosporine dose and hepatotoxicity is not significant (p=0.09; Fisher's Exact).

CO[C@@H]1[C@H](N(C)C(=O)c2ccccc2)C[C@H]2O[C@]1(C)n1c3ccccc3c3c4c(c5c6ccccc6n2c5c31)C(=O)NC4 [N-benzoyl-staurosporine]
percentage of subjects per dose group that experienced hepatotoxicity (50 mg/day, subjects with diabetic macular edema): 3% | percentage of subjects per dose group that experienced hepatotoxicity (100 mg/day, subjects with diabetic macular edema): 8% | percentage of subjects per dose group that experienced hepatotoxicity (150 mg/day, subjects with diabetic macular edema): 14% | Hepatotoxicity Yes (CPG samples (83 subjects, all arms incl. 0 mg/day)): 7% | Hepatotoxicity Yes (Trial samples (139 subjects, all arms incl. 0 mg/day)): 6% | subjects that experienced hepatotoxicity (of the 140 subjects enrolled in the clinical trial (all arms)): nine | safety profile (phase II trial, subjects with diabetic macular edema): good safety profile
